Experimental findings from ChEMBL document CHEMBL6182943, “Identification of 4'-Thiouridine as an Orally Available Antiviral Agent Targeting Both RdRp and NiRAN Functions of SARS-CoV-2 Nsp12” (J Med Chem, 2025) are described below.

Active and inactive are the calls of the source. The calls are words filed in the database; no cut-off is given here.

The target of data set [1] is Replicase polyprotein 1ab (Severe acute respiratory syndrome coronavirus 2) (UniProt P0DTD1). Kind of data set: Inhibition of SARS-CoV-2 Nsp12-Nsp7-Nsp8-2 RNA dependent RNA polymerase activity using partially double stranded RNA as substrate assessed as accumulation of abortive transcripts at 2.5 to 250 uM incubated for 30 mins in presence of UTP,ATP and GTP/CTP by gel electrophoresis based primer extension assay. The following applies: dose 2.5-250 µM.

Data set [2] has the same target. Kind of data set: Inhibition of SARS-CoV-2 Nsp12-Nsp7-Nsp8-2 RNA dependent RNA polymerase activity using partially double stranded RNA as substrate assessed as reduction in RNA elongation at 1 to 100 uM incubated for 30 mins in presence of UTP and GTP/CTP by gel electrophoresis based primer extension assay. As to conditions: dose 1-100 µM.
Data set [3] has the same target. In words: Inhibition of SARS-CoV-2 Nsp12-Nsp7-Nsp8-2 RNA dependent RNA polymerase activity using partially double stranded RNA as substrate assessed as generation of abortive transcripts by mis-incorporation into RNA at 100 uM incubated for 30 mins in presence of UTP by gel electrophoresis based primer extension assay.
Data set [4] deals with Severe acute respiratory syndrome coronavirus 2. Kind of data set: Inhibition of SARS-CoV-2 Nsp9/Nsp12 using 5'-pppLS10 as substrate assessed as inhibition of NiRAN-mediated RNAylation of Nsp9 by measuring increase in compound-conjugated Nsp9 at 1 to 100 uM incubated for 1 hrs by coomassie blue staining based SDS-PAGE analysis. The following applies: dose 1-100 µM.
Data set [5] deals with Replicase polyprotein 1ab (Severe acute respiratory syndrome coronavirus 2) (UniProt P0DTD1). In words: Inhibition of SARS-CoV-2 Nsp12-Nsp7-Nsp8-2 RNA dependent RNA polymerase activity using partially double stranded RNA as substrate assessed as generation of abortive transcripts by mis-incorporation into RNA at 100 uM incubated for 30 mins in presence of UTP and GTP/CTP by gel electrophoresis based primer extension assay.

Data set [6] can be described thus: Cytotoxicity against African green monkey Vero cells assessed as reduction in cell viability incubated for 48 hrs by MTT assay. The format is toxicity, cell-based. The following applies: chlorocebus sabaeus.
The nature of data set [7]: Selectivity index, ratio of CC50 for cytotoxicity against African green monkey Vero cells to EC50 for antiviral activity against SARS-CoV-2 infected in african green monkey Vero cells assessed as reduction in number of spike-protein expressing cells. The following applies: read-out: Ratio CC50/EC50. The data set is classed as toxicity, cell-based.
Data set [8] deals with SARS-CoV-2. In words: Antiviral activity against SARS-CoV-2 infected in african green monkey Vero cells assessed as reduction in number of spike-protein expressing cells pre-infected for 30 mins followed by compound addition and measured 48 hrs post-infection by DAPI staining based immunofluorescence analysis. The data set is classed as functional, organism-based. The following applies: Severe acute respiratory syndrome coronavirus 2, Vero.

Data set [9] deals with Severe acute respiratory syndrome coronavirus 2. In words: Inhibition of SARS-CoV-2 Nsp9/Nsp12 using 5'-pppLS10 as substrate assessed as inhibition of NiRAN-mediated RNAylation of Nsp9 by measuring increase in compound-conjugated Nsp9 incubated for 1 hrs by coomassie blue staining based SDS-PAGE analysis. The following applies: dose 1-100 µM.
The test system is the same in data set [10]. In words: Inhibition of SARS-CoV-2 Nsp9/Nsp12 using 5'-pppLS10 as substrate assessed as inhibition of NiRAN-mediated UMPylation of Nsp9 at 1 to 100 uM preincubated for 5 mins followed by UTP and [alpha-32P]UTP addition and measured after 10 mins by phosphorimaging based SDS-PAGE analysis. As to conditions: dose 1-100 µM, time 15.0 min.
For data set [11], the target named is Replicase polyprotein 1ab (Severe acute respiratory syndrome coronavirus 2) (UniProt P0DTD1). Kind of data set: Inhibition of SARS-CoV-2 Nsp12-Nsp7-Nsp8-2 RNA dependent RNA polymerase activity using partially double stranded RNA as substrate assessed as mis-incorporation into RNA by measuring increase in abortive transcripts length incubated for 30 mins in presence of ATP by gel electrophoresis based primer extension assay. The following applies: dose 1-100 µM.

Data set [12] has the same target. Kind of data set: Inhibition of SARS-CoV-2 Nsp12-Nsp7-Nsp8-2 RNA dependent RNA polymerase activity using partially double stranded RNA as substrate assessed as accumulation of abortive transcripts incubated for 30 mins in presence of UTP,ATP and GTP/CTP by gel electrophoresis based primer extension assay. The following applies: dose 2.5-250 µM.
For data set [13] the target is unchanged. In words: Inhibition of SARS-CoV-2 Nsp12-Nsp7-Nsp8-2 RNA dependent RNA polymerase activity using partially double stranded RNA as substrate assessed as generation of abortive transcripts by mis-incorporation into RNA at 100 uM incubated for 30 mins in presence of ATP by gel electrophoresis based primer extension assay.
The subject of data set [14] is Severe acute respiratory syndrome coronavirus 2. In words: Inhibition of SARS-CoV-2 Nsp9/Nsp12 using 5'-pppLS10 as substrate assessed as inhibition of NiRAN-mediated AMPylation of Nsp9 at 1 to 100 uM preincubated for 5 mins followed by ATP and [alpha-32P]ATP addition and measured after 10 mins by phosphorimaging based SDS-PAGE analysis. As to conditions: dose 1-100 µM, time 15.0 min.

For data set [15], the target named is Replicase polyprotein 1ab (Severe acute respiratory syndrome coronavirus 2) (UniProt P0DTD1). In words: Inhibition of SARS-CoV-2 Nsp12-Nsp7-Nsp8-2 RNA dependent RNA polymerase activity using partially double stranded RNA as substrate assessed as generation of abortive transcripts by mis-incorporation into RNA at 100 uM incubated for 30 mins in presence of ATP and GTP/CTP by gel electrophoresis based primer extension assay.

Data set [16] has as its system SARS-CoV-2. In words: Antiviral activity against SARS-CoV-2 infected in African green monkey Vero cells assessed as reduction in viral N protein level at 0.1 uM measured after 1 day by Western blot analysis. The following applies: Severe acute respiratory syndrome coronavirus 2. The format is functional, organism-based. In general terms: A western blot detects proteins with antibodies after separation by electrophoresis.

Data set [17] has as its system SARS-CoV-2. Kind of data set: Antiviral activity against SARS-CoV-2 infected in hACE2 expressing female B6.Cg-Tg(K18-ACE2)2Prlmn/J mouse model assessed as survival at 50 mg/kg, po preadministered twice daily for 4 days at 8 hrs interval with four hours before and after viral challenge and measured 14 days post viral challenge relative to control. The data set is classed as functional. As to conditions: Severe acute respiratory syndrome coronavirus 2, 336 h, time 14 day.

The subject of data set [18] is SARS-CoV-2. Kind of data set: Antiviral activity against SARS-CoV-2 infected in hACE2 expressing female B6.Cg-Tg(K18-ACE2)2Prlmn/J mouse model assessed as reduction in body weight loss at 50 mg/kg, po preadministered twice daily for 4 days at 8 hrs interval with four hours before and after viral challenge and measured 8 days post viral challenge. The format is functional, organism-based. The following applies: Severe acute respiratory syndrome coronavirus 2, time 8.0 day.

In data set [19] the test system is SARS-CoV-2. In words: Antiviral activity against SARS-CoV-2 infected in hACE2 expressing female B6.Cg-Tg(K18-ACE2)2Prlmn/J mouse model assessed as reduction in body weight loss at 50 mg/kg, po preadministered twice daily for 4 days at 8 hrs interval with four hours before and after viral challenge and measured 14 days post viral challenge. The data set is classed as functional, organism-based. The following applies: Severe acute respiratory syndrome coronavirus 2, time 14.0 day.

Take `N#C[C@@]1(c2ccc3c(N)ncnn23)O[C@H](COP(=O)(O)OP(=O)(O)OP(=O)(O)O)[C@@H](O)[C@H]1O`: the inhibition entry was “Minimal_effect” in data set [1]; “Not active; Formation Of Full-Length 40-Mer Product Is Still Prevented” in data set [2]; “Not active; Formation Of 27-Mer Product Observed” in data set [3] (dose 100.0 µM, time 30.0 min).

As to `C[C@@]1(F)[C@H](O)[C@@H](COP(=O)(O)OP(=O)(O)OP(=O)(O)O)O[C@H]1n1cnc2c(=O)[nH]c(N)nc21`, the inhibition result in data set [4] is “Active”.

As to `C[C@H](Cn1cnc2c(N)ncnc21)OCP(=O)(O)OP(=O)(O)OP(=O)(O)O`, the inhibition entry in data set [5] and in data set [3] (100 uM) was “Active; Compound Produced A Primer Extension Of ~22 Nucleotides Similar To Atp Starvation Condition” each time.

For the molecule `Nc1ncnc2c1ncn2[C@@H]1S[C@H](CO)[C@@H](O)[C@H]1O`, the CC50 at 48 h in [6] came out at 94.3 µM. The selectivity ratio in [7] worked out at 10.7. Besides, the EC50 with SARS-CoV-2 [8] worked out at 8.82 µM.

In the case of `Nc1nc2c(ncn2[C@@H]2S[C@H](CO)[C@@H](O)[C@H]2O)c(=O)[nH]1`, in [6], the CC50 at 48 h was more than 100 µM. Also, the selectivity ratio in data set [7] is more than 2.07. Also, the EC50 in the data set with SARS-CoV-2 [8] is 48.3 µM.

In the case of `O=c1ccn([C@@H]2S[C@H](COP(=O)(O)OP(=O)(O)OP(=O)(O)O)[C@@H](O)[C@H]2O)c(=O)[nH]1`, the inhibition result in data set [9] was “Dose-dependent-effect”; in data set [11] it was “Dose-dependent-effect; Transcripts Remained Below 27 Nucleotides”; in data set [12], “Dose-dependent-effect”; in [13] (100 uM), “Active; Compound Led To Rna Products Longer Than 20 Nucleotides But Did Not Reach 27-Mer Rna”. Besides, the inhibition entry in [10] and in [14] was “Active” each time.

In the case of `CC(C)OC(=O)[C@H](C)N[P@](=O)(OC[C@H]1S[C@@H](n2ccc(=O)[nH]c2=O)[C@H](O)[C@@H]1O)Oc1ccccc1`, in data set [6], the CC50 at 48 h was more than 100 µM. In addition, the EC50 in the data set on SARS-CoV-2 [8] is more than 100 µM.

Regarding `C[C@@]1(F)[C@H](O)[C@@H](COP(=O)(O)OP(=O)(O)OP(=O)(O)O)O[C@H]1n1ccc(=O)[nH]c1=O`, the inhibition entry in data set [13] (dose 100.0 µM, time 30.0 min) is “inactive”; in [15], “inactive”.

With `O=c1nc(NO)ccn1[C@@H]1O[C@H](CO)[C@@H](O)[C@H]1O` [N-HYDROXYCYTIDINE], in data set [6], the CC50 at 48 h is 38.6 µM. For the same molecule, the selectivity ratio in [7] was 37.5. Also, in the data set on SARS-CoV-2 [8], the EC50 was 1.03 µM. Also, the result in the data set on SARS-CoV-2 [16] was Active.

`Nc1ccn([C@@H]2S[C@H](CO)[C@@H](O)[C@H]2O)c(=O)n1`: the CC50 at 48 h in data set [6] is more than 100 µM. Further, the selectivity ratio in data set [7] was more than 41.7. The EC50 in the data set on SARS-CoV-2 [8] worked out at 2.4 µM.

Turning to `CC(C)C(=O)OC[C@H]1S[C@@H](n2ccc(=O)[nH]c2=O)[C@H](O)[C@@H]1O`, in data set [6], the CC50 at 48 h was more than 100 µM. The selectivity ratio in [7] was more than 3.73. In the data set on SARS-CoV-2 [8], the EC50 was 26.8 µM.

Regarding `CC(C)C(=O)OC[C@H]1O[C@@H](n2cc/c(=N\O)[nH]c2=O)[C@H](O)[C@@H]1O` [MOLNUPIRAVIR], the survival at 50 mg/kg in the data set with SARS-CoV-2 [17] was 60%. For the same molecule, the result in the data set with SARS-CoV-2 [18] and in the data set with SARS-CoV-2 [19] was Active.

Take `Cc1cn([C@@H]2S[C@H](CO)[C@@H](O)[C@H]2O)c(=O)[nH]c1=O`: the CC50 at 48 h in data set [6] was more than 100 µM. For the same molecule, the EC50 in the data set on SARS-CoV-2 [8] is more than 100 µM.

As a reminder, the CC50 is the concentration at which the toxic effect on the cells reaches its halfway point. As usually defined, the EC50 is the concentration needed to bring the measured effect to its halfway point.
